Test results taken from patent US11149031B2, “Substituted N-(3-fluoropropyl)-pyrrolidine compounds, processes for their preparation and therapeutic uses thereof” (SANOFI, priority 2016, dated 2021).
Read-outs that look alike come from different tables or passages of the source.

Key:
[1] = target: His6-ERα298-554 WT (ERα ligand-binding domain) (Homo sapiens (Human), UniProt P03372); experiment: Test A: biochemical antagonist activity, LanthaScreen TR-FRET ERα coactivator assay, WT; details: read-out: Antagonism WT IC50
In short: (§1)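 His6-ERα LBD (0.5 nM) with 0.5 nM Tb-anti-His6 antibody, 250 nM PGC1a peptide and 3 nM (or 10 nM) estradiol in 100 mM potassium phosphate pH 7.4 with 5 mM DTT, incubated overnight at room temperature with compound.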

[2] = tested on: MCF7 cells (breast tumor cells) WT; experiment: Test B: cell proliferation/viability assay (CellTiter-Glo) on MCF7 WT; format: cell-based; details: 7 days of compound exposure
In short: (§2)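 Seven-day compound exposure, 9 concentrations from 3 to 0.000001 μM, in phenol red-free medium with 5% charcoal-stripped serum. ER Tyr537Ser and Asp538Gly lines derive from transfected MCF7 selected to grow without estradiol. Viability from CellTiter-Glo luminescence, background-corrected, as percent of untreated.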

[3] = tested on: MCF7 cells expressing mutant estrogen receptor Tyr 537 Ser; experiment: Test B: cell proliferation/viability assay (CellTiter-Glo) on MCF7 Tyr 537 Ser mutant; format: cell-based; details: Homo sapiens, MCF7, 168 h, MCF7 cells expressing ER Tyr 537 Ser mutant, 7 days of compound exposure, read-out: proliferation MCF7 Y537S IC50
In short: as §2

[4] = target: ERα in MCF7 cells (Homo sapiens (Human), UniProt P03372); experiment: Test C: estrogen receptor degradation activity, ERα in cell western assay in MCF7 cells; format: cell-based; details: for DC50: 4 hours post compound addition, ERα in cell western, read-out: Degradation IC50; for % Degradation at 3 μM: 4 hours, relative to fulvestrant
In short: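 In-cell western: ERα level (green) against DNA stain Syto-64 (red) by integrated intensity. MCF7 cells in hormone-depleted medium exposed 4 h to compound at 3-0.000018 μM final (1:5 series); fulvestrant 0.1 μM as positive control.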

[5] = target: His6-ERα298-554 Y537S mutant (ERα ligand-binding domain) (Homo sapiens (Human), UniProt P03372, Y537S); experiment: Test A: biochemical antagonist activity, LanthaScreen TR-FRET ERα coactivator assay, Y537S mutant; details: read-out: Antagonism Y537S IC50
In short: as §1

[6] = target: His6-ERα298-554 D538G mutant (ERα ligand-binding domain) (Homo sapiens (Human), UniProt P03372, D538G); experiment: Test A: biochemical antagonist activity, LanthaScreen TR-FRET ERα coactivator assay, D538G mutant; details: read-out: Antagonism D538G IC50
In short: as §1

[7] = tested on: MCF7 cells expressing mutant estrogen receptor Asp 538 Gly; experiment: Test B: cell proliferation/viability assay (CellTiter-Glo) on MCF7 Asp 538 Gly mutant; format: cell-based; details: Homo sapiens, MCF7, 168 h, MCF7 cells expressing ER Asp 538 Gly mutant, 7 days of compound exposure, read-out: proliferation MCF7 D538G IC50
In short: as §2

[8] = asterisk (*): protocol using 10 nM estradiol

His6-ERα298-554 Y537S mutant (ERα ligand-binding domain), sequence (P03372 298-554 Y537S): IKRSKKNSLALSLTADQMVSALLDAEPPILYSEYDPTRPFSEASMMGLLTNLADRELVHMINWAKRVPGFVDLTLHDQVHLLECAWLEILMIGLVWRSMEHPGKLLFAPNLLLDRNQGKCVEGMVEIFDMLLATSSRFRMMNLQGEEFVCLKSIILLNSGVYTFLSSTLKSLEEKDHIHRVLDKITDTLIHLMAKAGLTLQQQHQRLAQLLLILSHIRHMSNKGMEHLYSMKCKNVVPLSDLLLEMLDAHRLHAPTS
ERα in MCF7 cells, sequence (P03372 whole entry): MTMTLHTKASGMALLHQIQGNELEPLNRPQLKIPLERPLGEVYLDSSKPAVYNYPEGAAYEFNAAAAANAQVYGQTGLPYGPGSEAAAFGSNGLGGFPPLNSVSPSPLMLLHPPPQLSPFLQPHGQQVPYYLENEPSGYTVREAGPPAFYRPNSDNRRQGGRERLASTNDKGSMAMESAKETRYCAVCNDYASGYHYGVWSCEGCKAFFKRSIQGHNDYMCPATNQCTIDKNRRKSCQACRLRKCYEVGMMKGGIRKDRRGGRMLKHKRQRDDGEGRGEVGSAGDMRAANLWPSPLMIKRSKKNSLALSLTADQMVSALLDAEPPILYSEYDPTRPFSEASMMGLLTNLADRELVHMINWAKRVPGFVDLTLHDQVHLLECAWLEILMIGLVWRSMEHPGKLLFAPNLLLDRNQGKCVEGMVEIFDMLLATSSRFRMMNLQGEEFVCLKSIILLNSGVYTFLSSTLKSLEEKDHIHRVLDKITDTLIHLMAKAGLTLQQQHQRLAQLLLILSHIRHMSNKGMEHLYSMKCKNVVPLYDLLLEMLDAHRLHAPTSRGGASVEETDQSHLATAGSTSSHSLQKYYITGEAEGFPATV
His6-ERα298-554 D538G mutant (ERα ligand-binding domain), sequence (P03372 298-554 D538G): as the sequence (P03372 298-554 Y537S) above, with S240Y, D241G counted along it
His6-ERα298-554 WT (ERα ligand-binding domain), sequence (P03372 298-554): as the sequence (P03372 298-554 Y537S) above, with S240Y counted along it

Row | Structure (SMILES) | IC50 [1, 8] [nM] | IC50 ([2]; Homo sapiens, MCF7, 168 h) [nM] | IC50 [3] [nM] | DC50 [4] [nM] | % Degradation at 3 μM [4] [%] | IC50 [5, 8] [nM] | IC50 [6, 8] [nM] | IC50 [7] [nM] | IC50 ([1]; protocol with 3 nM estradiol) [nM] | IC50 ([5]; protocol with 3 nM estradiol) [nM] | IC50 ([6]; protocol with 3 nM estradiol) [nM] | IC50 [2] [nM]
1 | Oc1ccc2c(c1)SCC(c1ccc(OC(F)(F)F)cc1)=C2c1ccc(O[C@H]2CCN(CCCF)C2)nc1 [Example 80, 4-[6-[(3S)-1-(3-fluoropropyl)pyrrolidin-3-yl]oxy-3-pyridyl]-3-[4-(trifluoromethoxy)phenyl]-2H-thiochromen-7-ol] | 12 | 0.3 | 3 | 0.2 | 89 | 154 | 283 | 0.4 |  |  |  | 
2 | Nc1ccc(C2=C(c3ccc(O[C@H]4CCN(CCCF)C4)cc3)c3ccc(O)cc3SC2)c(F)n1 [Example 72, 3-(6-amino-2-fluoro-3-pyridyl)-4-[4-[(3S)-1-(3-fluoropropyl)pyrrolidin-3-yl]oxyphenyl]-2H-thiochromen-7-ol] | 11 | 2 | 1 | 0.2 | 91 | 108 | 202 | 0.5 |  |  |  | 
3 | Cc1cc(C2=C(c3ccc(O[C@H]4CCN(CCCF)C4)cc3)c3ccc(C(=O)O)cc3SCC2)ccc1Cl [Example 211, 4-(4-chloro-3-methyl-phenyl)-5-[4-[(3S)-1-(3-fluoropropyl)pyrrolidin-3-yl]oxyphenyl]-2,3-dihydro-1-benzothiepine-8-carboxylic acid] | 39 | 0.4 | 10 | 0.3 | 93 | 475 | 964 | 0.6 |  |  |  | 
4 | O=C1Cc2cc(C3=C(c4ccc(O[C@H]5CCN(CCCF)C5)cc4)c4ccc(O)cc4SC3)ccc2N1 [Example 51, 5-[4-[4-[(3S)-1-(3-fluoropropyl)pyrrolidin-3-yl]oxyphenyl]-7-hydroxy-2H-thiochromen-3-yl]indolin-2-one] | 350 | 91 | 230 | 12 | 85 | 3600 | > 4000 | 148 |  |  |  | 
5 | CC(C)Oc1ccc(C2=C(c3ccc(O[C@H]4CCN(CCCF)C4)cc3)c3ccc(O)cc3OCC2)cc1F [Example 141, 4-(3-fluoro-4-isopropoxy-phenyl)-5-[4-[(3S)-1-(3-fluoropropyl)pyrrolidin-3-yl]oxyphenyl]-2,3-dihydro-1-benzoxepin-8-ol] |  | 1 | 22 | 2 | 87 |  |  | 4 | 23 | 1120 | 1500 | 
6 | Oc1ccc2c(c1)OCCC(c1ccc(Cl)cc1Cl)=C2c1ccc(O[C@H]2CCN(CCCF)C2)cc1 [Example 102, 4-(2,4-dichlorophenyl)-5-[4-[(3S)-1-(3-fluoropropyl)pyrrolidin-3-yl]oxyphenyl]-2,3-dihydro-1-benzoxepin-8-ol] |  | 0.5 | 5 | 2 | 87 |  |  | 0.8 | 12 | 51 | 106 | 
7 | Cc1ccc(C2=C(c3ccc(O[C@H]4CCN(CCCF)C4)cc3)c3ccc(O)cc3[S+]([O-])C2)c(F)c1 (single isomer, unassigned) [Example 70] | 1660 |  | 478 | 25 | 73 | > 4000 | > 4000 | 97 |  |  |  | 64
8 | Oc1ccc2c(c1)SCCC(c1ccc(OC(F)F)c(F)c1)=C2c1ccc(O[C@H]2CCN(CCCF)C2)nc1 [Example 207, 4-[4-(difluoromethoxy)-3-fluoro-phenyl]-5-[6-[(3S)-1-(3-fluoropropyl)pyrrolidin-3-yl]oxy-3-pyridyl]-2,3-dihydro-1-benzothiepin-8-ol] | 2 | 0.1 | 2 | 0.5 | 85 | 6 | 9 | 0.3 |  |  |  | 
9 | Oc1ccc(C2=C(c3ccc(O[C@H]4CCN(CCCF)C4)cc3)c3ccc(O)cc3OC2)cc1 [Example 83, 4-[4-[(3S)-1-(3-fluoropropyl)pyrrolidin-3-yl]oxyphenyl]-3-(4-hydroxyphenyl)-2H-chromen-7-ol] |  | 2 | 18 | 2 | 75 |  |  | 13 | 81 | 1160 | 1320 | 
10 | Oc1cc2c(cc1F)C(c1ccc(O[C@H]3CCN(CCCF)C3)cc1)=C(c1ccc3c(c1)CCN3)CCO2 [Example 142, 7-fluoro-5-[4-[(3S)-1-(3-fluoropropyl)pyrrolidin-3-yl]oxyphenyl]-4-indolin-5-yl-2,3-dihydro-1-benzoxepin-8-ol] |  | 8 | 154 | 2 | 83 |  |  | 34 | 41 | 1150 | 1820 | 
11 | CCOc1ccc(C2=C(c3cnc(O[C@H]4CCN(CCCF)C4)nc3)c3ccc(O)cc3CCC2)c(F)n1 [Example 251, 6-(6-ethoxy-2-fluoro-3-pyridyl)-5-[2-[(3S)-1-(3-fluoropropyl)pyrrolidin-3-yl]oxypyrimidin-5-yl]-8,9-dihydro-7H-benzo[7]annulen-2-ol] | 4 | 0.4 | 5 | 0.5 | 89 | 57 | 104 | 0.5 |  |  |  | 
12 | Oc1ccc2c(c1)C(c1ccc(O[C@H]3CCN(CCCF)C3)cc1)=C(c1ccc(OC(F)(F)F)cc1F)CC2 [Example 10, 8-[4-[(3S)-1-(3-fluoropropyl)pyrrolidin-3-yl]oxyphenyl]-7-[2-fluoro-4-(trifluoromethoxy)phenyl]-5,6-dihydronaphthalen-2-ol] | 1270 | 85 | > 999 | 15 | 78 | > 4000 | > 4000 | 29 |  |  |  | 
13 | Oc1ccc2c(c1)OCCC(c1ccc3c(c1)NCC3)=C2c1ccc(O[C@H]2CCN(CCCF)C2)cc1 [Example 116, 5-[4-[(3S)-1-(3-fluoropropyl)pyrrolidin-3-yl]oxyphenyl]-4-indolin-6-yl-2,3-dihydro-1-benzoxepin-8-ol] |  | 6 | 150 | 2 | 88 |  |  | 17 | 31 | 86 | 120 | 
14 | Cc1cc(C2=C(c3ccc(O[C@H]4CCN(CCCF)C4)cc3)c3ccc(O)cc3SC2)ccc1Cl [Example 17, 3-(4-chloro-3-methyl-phenyl)-4-[4-[(3S)-1-(3-fluoropropyl)pyrrolidin-3-yl]oxyphenyl]-2H-thiochromen-7-ol] |  | 0.4 | 3 | 2 | 87 |  |  | 1 | 7 | 14 | 39 | 
15 | CCOc1ccc(C2=C(c3ccc(O[C@H]4CCN(CCCF)C4)cc3)c3ccc(O)cc3SCC2)c(C)c1 [Example 186, 4-(4-ethoxy-2-methyl-phenyl)-5-[4-[(3S)-1-(3-fluoropropyl)pyrrolidin-3-yl]oxyphenyl]-2,3-dihydro-1-benzothiepin-8-ol] | 1 | 0.3 | 5 | 0.6 | 85 | 16 | 21 | 0.4 |  |  |  | 
16 | CC(C)(C)c1ccc(C2=C(c3ccc(O[C@H]4CCN(CCCF)C4)cc3)c3cc(O)ccc3CC2)cc1 [Example 11, 7-(4-tert-butylphenyl)-8-[4-[(3S)-1-(3-fluoropropyl)pyrrolidin-3-yl]oxyphenyl]-5,6-dihydronaphthalen-2-ol] | > 4000 | 44 | > 999 | 49 | 80 | > 4000 | > 4000 | 162 |  |  |  | 
